According to PubChem BioAssay AID330 (DTP/NCI, 2004):
“And” between values parts separate entries of the source, which are not always exact repeats. Identical values can stand only once. Inconclusive results and toxic doses are left out.

System: P388 leukemia ip, CD2F1 mice, survival T/C
Experiment: NCI In Vivo Anticancer Drug Screen. Data for tumor model P388 Leukemia (intraperitoneal) in CD2F1 (CDF1) mice
Conditions: endpoint: median survival time, higher = longer survival
In short: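 Mice carrying the transplanted tumor received test compound or vehicle. Survival was recorded in each group, and the value is the treated-group measurement divided by that of the vehicle-treated control group.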

[1] = dose: 25.0 mg/kg/injection, schedule: Q01DX009 (ip), vehicle: saline with Tween-80
[2] = dose: 50.0 mg/kg/injection, schedule: Q01DX009 (ip), vehicle: saline with Tween-80
[3] = dose: 50.0 mg/kg/injection, schedule: Q01DX005 (ip), vehicle: saline with Tween-80
[4] = dose: 100.0 mg/kg/injection, schedule: Q01DX005 (ip), vehicle: saline with Tween-80
[5] = dose: 200.0 mg/kg/injection, schedule: Q01DX005 (ip), vehicle: saline with Tween-80
[6] = dose: 6.25 mg/kg/injection, schedule: Q01DX009 (ip), vehicle: saline with Tween-80
[7] = dose: 50.0 mg/kg/injection, schedule: Q01DX009 (ip), vehicle: saline
[8] = dose: 50.0 mg/kg/injection, schedule: Q01DX005 (ip), vehicle: Klucel (hydroxypropylcellulose) (HPC)
[9] = dose: 100.0 mg/kg/injection, schedule: Q01DX005 (ip), vehicle: Klucel (hydroxypropylcellulose) (HPC)

Q: For O=[N+]([O-])c1cccc(SNCCO)c1, which T/C (dose: 12.5 mg/kg/injection, schedule: Q01DX009 (ip), vehicle: saline with Tween-80) is on record?
A: 108 % of control

Q: What about the T/C [1] of the same molecule?
A: 100 % of control

Q: And the T/C [2]?
A: 100 % of control and 94 % of control

Q: How did the T/C (dose: 3.12 mg/kg/injection, schedule: Q01DX005 (ip), vehicle: water) turn out when CCOc1ccc(-c2nc3ccc(-c4nc5ccc(N6CCN(C)CC6)cc5[nH]4)cc3[nH]2)cc1 was run?
A: 159 % of control

Q: With COc1cc(NCC(O)CN(CC(C)C)C2CCCC2)c2ncccc2c1 (configuration not stated) as the molecule, how does the T/C (dose: 12.5 mg/kg/injection, schedule: Q01DX005 (ip), vehicle: saline) read?
A: 100 % of control

Q: And the T/C (dose: 25.0 mg/kg/injection, schedule: Q01DX005 (ip), vehicle: saline)?
A: 99 % of control

Q: What does the source list for CC(C)CSc1nc2ccc(N=Cc3ccccc3O)cc2s1?
A: T/C (dose: 50.0 mg/kg/injection, schedule: Q01DX009 (ip), vehicle: Klucel (hydroxypropylcellulose) (HPC)): 94 % of control; T/C (dose: 100.0 mg/kg/injection, schedule: Q01DX009 (ip), vehicle: Klucel (hydroxypropylcellulose) (HPC)): 92 % of control; T/C (dose: 200.0 mg/kg/injection, schedule: Q01DX009 (ip), vehicle: Klucel (hydroxypropylcellulose) (HPC)): 89 % of control

Q: Which results are given for CN(C)c1nc(N)nc2c1nc(Cl)n2C1OC(CO)C(O)C1O (configuration not stated)?
A: T/C [3]: 99 % of control; T/C [4]: 100 % of control; T/C [5]: 100 % of control

Q: With C[N+]1(C)CCN(Cc2ccc3c(c2)CCc2ccccc2N3)CC1 as the molecule, how does the T/C (dose: 3.75 mg/kg/injection, schedule: Q01DX005 (ip), vehicle: saline) read?
A: 104 % of control

Q: What about the T/C (dose: 7.5 mg/kg/injection, schedule: Q01DX005 (ip), vehicle: saline) of the same molecule?
A: 96 % of control

Q: What does the source list for C=COCC(C)C (tested in a mixture with another compound)?
A: T/C (dose: 1.56 mg/kg/injection, schedule: Q01DX009 (ip), vehicle: saline with Tween-80): 108 % of control; T/C (dose: 3.12 mg/kg/injection, schedule: Q01DX009 (ip), vehicle: saline with Tween-80): 101 % of control; T/C [6]: 96 % of control

Q: Which results are given for O=C(Nc1cccc2ccccc12)Oc1cccc2cccnc12?
A: T/C [1]: 89 % of control; T/C [2]: 86 % of control; T/C (dose: 100.0 mg/kg/injection, schedule: Q01DX009 (ip), vehicle: saline with Tween-80): 89 % of control

Q: Which T/C [7] does the source give for CC(=O)OCC/C(SC(C)=O)=C(/C)N(C=O)Cc1cnc(C)nc1N here?
A: 98 % of control

Q: What about the T/C (dose: 100.0 mg/kg/injection, schedule: Q01DX009 (ip), vehicle: saline) of the same molecule?
A: 94 % of control

Q: And the T/C (dose: 200.0 mg/kg/injection, schedule: Q01DX009 (ip), vehicle: saline)?
A: 100 % of control

Q: Cc1cc2cc3cc(C)c(N)cc3nc2cc1N was tested. Which T/C [6] did it give?
A: 120 % of control and 219 % of control

Q: What about the T/C (dose: 12.5 mg/kg/injection, schedule: Q01DX009 (ip), vehicle: saline) of the same molecule?
A: 113 % of control

Q: And the T/C (dose: 25.0 mg/kg/injection, schedule: Q01DX009 (ip), vehicle: saline)?
A: 110 % of control

Q: And the T/C [2]?
A: 97 % of control

Q: And the T/C [7]?
A: 114 % of control

Q: What does the source list for CC(NC(=O)C(Cc1c[nH]c2ccccc12)NC(=O)OCc1ccccc1)C(=O)O (configuration not stated)?
A: T/C [3]: 119 % of control; T/C [4]: 103 % of control; T/C [5]: 97 % of control

Q: Which results are given for FC1(F)SC(F)(F)S1?
A: T/C [8]: 108 % of control; T/C [9]: 108 % of control; T/C (dose: 200.0 mg/kg/injection, schedule: Q01DX005 (ip), vehicle: Klucel (hydroxypropylcellulose) (HPC)): 108 % of control

Q: CSc1nc2ccc(N3C(=O)C=CC3=O)cc2s1 was tested. Which T/C (dose: 3.12 mg/kg/injection, schedule: Q01DX009 (ip), vehicle: Klucel (hydroxypropylcellulose) (HPC)) did it give?
A: 102 % of control

Q: What about the T/C (dose: 6.25 mg/kg/injection, schedule: Q01DX009 (ip), vehicle: Klucel (hydroxypropylcellulose) (HPC)) of the same molecule?
A: 105 % of control

Q: And the T/C (dose: 12.5 mg/kg/injection, schedule: Q01DX009 (ip), vehicle: Klucel (hydroxypropylcellulose) (HPC))?
A: 101 % of control

Q: What does the source list for CCO/C(CC#N)=C(/C#N)C(=O)Nc1ccc(OC)cc1?
A: T/C (dose: 60.0 mg/kg/injection, schedule: Q01DX005 (ip), vehicle: saline with Tween-80): 95 % of control; T/C (dose: 120.0 mg/kg/injection, schedule: Q01DX005 (ip), vehicle: saline with Tween-80): 93 % of control; T/C (dose: 240.0 mg/kg/injection, schedule: Q01DX005 (ip), vehicle: saline with Tween-80): 89 % of control

Q: Which T/C (dose: 60.0 mg/kg/injection, schedule: Q01DX005 (ip), vehicle: saline) does the source give for Nc1nnc2nc(CC(=O)c3ccccc3)c(=O)[nH]n12 here?
A: 96 % of control

Q: What about the T/C (dose: 120.0 mg/kg/injection, schedule: Q01DX005 (ip), vehicle: saline) of the same molecule?
A: 100 % of control

Q: And the T/C (dose: 240.0 mg/kg/injection, schedule: Q01DX005 (ip), vehicle: saline)?
A: 100 % of control

Q: With CN(C)c1ccc2c(SCC(=O)OCC(=O)C3(O)CCC4C5CCC6=CC(=O)C=CC6(C)C5C(O)CC43C)c3ccc(N(C)C)cc3nc2c1 (configuration not stated) as the molecule, how does the T/C (dose: 12.5 mg/kg/injection, schedule: Q01DX005 (ip), vehicle: Klucel (hydroxypropylcellulose) (HPC)) read?
A: 98 % of control and 97 % of control

Q: And the T/C (dose: 25.0 mg/kg/injection, schedule: Q01DX005 (ip), vehicle: Klucel (hydroxypropylcellulose) (HPC))?
A: 111 % of control and 93 % of control

Q: And the T/C [8]?
A: 123 % of control and 96 % of control

Q: What about the T/C [9] of the same molecule?
A: 118 % of control and 122 % of control
